Measurements from patent US5670492A, “DC-89 derivatives” (priority 1994, dated 1997).
Values after ≈ are worked out from the molar mass of the structure shown.

System: ddY-strain male mice
Assay: Acute Toxicity
Format: in vivo
Settings: i.v., mortality at 14 days after administration
Method: Compound (I) was intravenously administered to ddY-strain male mice each weighing 20±1 g. MLD (minimum lethal dose) was determined by observing the mortality at 14 days after administration.

Structure (SMILES)	MLD (minimum lethal dose) [mg/kg]
COC(=O)c1c(C)[nH]c2c(OC(=O)N3CCN(C)CC3)cc3c(c12)C(CBr)CN3C(=O)/C=C/c1ccc(OC)nc1 (stereo not shown) [Compound 3]	1.0
COC(=O)Oc1cc2c(c3c(C(=O)OC)c(C)[nH]c13)C(CBr)CN2C(=O)/C=C/c1ccc(OC)nc1 (stereo not shown) [Compound 4]	0.50
COC(=O)c1c(C)[nH]c2c(OC(=O)N3CCN(C)CC3)cc3c(c12)C(CBr)CN3C(=O)/C=C/c1cnc(OC)nc1 (stereo not shown) [Compound 8]	4.0
COC(=O)c1c(C)[nH]c2c(OC(C)=O)cc3c(c12)C(CBr)CN3C(=O)/C=C/c1cnc(OC)nc1 (stereo not shown) [Compound 11]	1.0
COC(=O)c1c(C)[nH]c2c(OC(=O)N3CCN(C)CC3)cc3c(c12)C(CBr)CN3C(=O)/C=C/c1ccc(OC)nn1 (stereo not shown) [Compound 14]	0.50
COC(=O)c1c(C)[nH]c2c(OC(=O)N3CCN(C)CC3)cc3c(c12)C(CBr)CN3C(=O)COc1ccc(OC)cc1 (stereo not shown) [Compound 20]	0.50
COC(=O)c1c(C)[nH]c2c(OC(=O)N3CCN(C)CC3)cc3c(c12)C(CBr)CN3C(=O)COc1ccc(OC(F)(F)F)cc1 (stereo not shown) [Compound 25]	4.0
COC(=O)c1c(C)[nH]c2c(OC(=O)N3CCN(C)CC3)cc3c(c12)C(CBr)CN3C(=O)/C=C/c1ccc(OC)c(N(C)C)c1 (stereo not shown) [Compound 43]	4.0
COC(=O)c1c(C)[nH]c2c(OC(C)=O)cc3c(c12)C(CBr)CN3C(=O)/C=C/c1ccc(OC)c(N(C)C)c1 (stereo not shown) [Compound 45]	1.0
CCN(CC)c1cc(/C=C/C(=O)N2CC(CBr)c3c2cc(OC(=O)N2CCN(C)CC2)c2[nH]c(C)c(C(=O)OC)c32)ccc1OC (stereo not shown) [Compound 49]	> 8.0

System: not listed separately
Assay: Test for Solubility in Water
Format: physicochemical
Settings: room temperature
Method: A sample tube was charged with 0.7 mg of Compound (I), and 30 μl of water were added thereto at room temperature. The mixture was stirred, and the solubility in water was measured. When the compound was not dissolved, 30 μl of water was added thereto successively, and the mixture was stirred. The solubility in water was measured when the compound was dissolved.

Structure (SMILES)	solubility [mg/mL]
COC(=O)c1c(C)[nH]c2c(OC(=O)N3CCN(C)CC3)cc3c(c12)C(CBr)CN3C(=O)/C=C/c1ccc(OC)nc1 (stereo not shown) [Compound 3]	> 20
COC(=O)c1c(C)[nH]c2c(OC(=O)N3CCN(C)CC3)cc3c(c12)C(CBr)CN3C(=O)/C=C/c1cnc(OC)nc1 (stereo not shown) [Compound 8]	> 20
COC(=O)c1c(C)[nH]c2c(OC(=O)N3CCN(C)CC3)cc3c(c12)C(CBr)CN3C(=O)/C=C/c1ccc(OC)nn1 (stereo not shown) [Compound 14]	> 20
COC(=O)c1c(C)[nH]c2c(OC(=O)N3CCN(C)CC3)cc3c(c12)C(CBr)CN3C(=O)COc1ccc(OC(F)(F)F)cc1 (stereo not shown) [Compound 25]	0.2 (≈ 0.293 mM)
COC(=O)c1c(C)[nH]c2c(OC(=O)N3CCN(C)CC3)cc3c(c12)C(CBr)CN3C(=O)/C=C/c1ccc(OC)c(N(C)C)c1 (stereo not shown) [Compound 43]	< 0.5
COC(=O)c1c(C)[nH]c2c(OC(C)=O)cc3c(c12)C(CBr)CN3C(=O)/C=C/c1ccc(OC)c(N(C)C)c1 (stereo not shown) [Compound 45]	> 20
CCN(CC)c1cc(/C=C/C(=O)N2CC(CBr)c3c2cc(OC(=O)N2CCN(C)CC2)c2[nH]c(C)c(C(=O)OC)c32)ccc1OC (stereo not shown) [Compound 49]	> 20

System: HeLaS3 cells
Assay: Growth Inhibitory Effect Against HeLaS3 cells
Format: cell-based
Settings: Homo sapiens, HeLa S3, 72 h
Method: HeLaS3 cells were suspended in MEM medium containing 10% calf serum and 2 mM glutamine to a concentration of 2.67×10^4 cells/mi. The cell suspension thus prepared was put into wells of a 24-well culture plate in an amount of 0.75 ml per well. After the cells were incubated in a CO2 incubator overnight at 37° C., Compound (I) which had been appropriately diluted with a culture medium was added to each well in an amount of 0.25 ml.
The cells were further incubated in the CO2 incubator for 72 hours, and the culture supernatant was removed. Then, the cells were dispersed in a solution of trypsin and EDTA and recovered. The number of cells was counted using a cell counter. The concentration (IC50) of Compound (I) at which the growth of the cells is inhibited by 50% was calculated by comparing the number of untreated cells with the number of the cells treated with Compound (I) at known concentrations.

Structure (SMILES)	IC50 [nM]
COC(=O)c1c(C)[nH]c2c(OC(=O)N3CCN(C)CC3)cc3c(c12)C(CBr)CN3C(=O)/C=C/c1ccc(OC)nc1 (stereo not shown) [Compound 3]	110
COC(=O)Oc1cc2c(c3c(C(=O)OC)c(C)[nH]c13)C(CBr)CN2C(=O)/C=C/c1ccc(OC)nc1 (stereo not shown) [Compound 4]	0.7
COC(=O)c1c(C)[nH]c2c(OC(=O)N3CCN(C)CC3)cc3c(c12)C(CBr)CN3C(=O)/C=C/c1cnc(OC)nc1 (stereo not shown) [Compound 8]	170
COC(=O)c1c(C)[nH]c2c(OC(C)=O)cc3c(c12)C(CBr)CN3C(=O)/C=C/c1cnc(OC)nc1 (stereo not shown) [Compound 11]	0.92
COC(=O)c1c(C)[nH]c2c(OC(=O)N3CCN(C)CC3)cc3c(c12)C(CBr)CN3C(=O)/C=C/c1ccc(OC)nn1 (stereo not shown) [Compound 14]	90
COC(=O)c1c(C)[nH]c2c(OC(=O)N3CCN(C)CC3)cc3c(c12)C(CBr)CN3C(=O)COc1ccc(OC)cc1 (stereo not shown) [Compound 20]	94
COC(=O)c1c(C)[nH]c2c(OC(=O)N3CCN(C)CC3)cc3c(c12)C(CBr)CN3C(=O)COc1ccc(OC(F)(F)F)cc1 (stereo not shown) [Compound 25]	1100
COC(=O)c1c(C)[nH]c2c(OC(=O)N3CCN(C)CC3)cc3c(c12)C(CBr)CN3C(=O)/C=C/c1ccc(OC)c(N(C)C)c1 (stereo not shown) [Compound 43]	52
COC(=O)c1c(C)[nH]c2c(OC(C)=O)cc3c(c12)C(CBr)CN3C(=O)/C=C/c1ccc(OC)c(N(C)C)c1 (stereo not shown) [Compound 45]	0.54
CCN(CC)c1cc(/C=C/C(=O)N2CC(CBr)c3c2cc(OC(=O)N2CCN(C)CC2)c2[nH]c(C)c(C(=O)OC)c32)ccc1OC (stereo not shown) [Compound 49]	280

System: Sarcoma 180 tumor
Assay: Therapeutic Effect Against Sarcoma 180 Tumor
Format: in vivo, male ddY-strain mice
Settings: Mus musculus, Sarcoma-180, iv, 168 h, read-out: T/C
Method: Five male ddY-strain mice each weighing 18-20 g were used for each group as test animals, and 5×10^5 Sarcoma 180 tumor cells were implanted at the axilla subcutaneously. One day after the implantation, 0.2 ml of a physiological saline containing Compound (I) at the concentration shown in Table 2 was intravenously administered to each mouse. T/C [T: average tumor volume (mm^3) of the group treated with the test compound, C: average tumor volume (mm^3) of the control group (to which […] of a physiological saline was intravenously administered)] was determined seven days after the implantation.

Structure (SMILES)	response vs control in vivo at 1 mg/kg [%]	response vs control in vivo at 0.5 mg/kg [%]	response vs control in vivo at 2 mg/kg [%]	response vs control in vivo at 8 mg/kg [%]
COC(=O)c1c(C)[nH]c2c(OC(=O)N3CCN(C)CC3)cc3c(c12)C(CBr)CN3C(=O)/C=C/c1ccc(OC)nc1 (stereo not shown) [Compound 3]	36	–	–	–
COC(=O)Oc1cc2c(c3c(C(=O)OC)c(C)[nH]c13)C(CBr)CN2C(=O)/C=C/c1ccc(OC)nc1 (stereo not shown) [Compound 4]	–	35	–	–
COC(=O)c1c(C)[nH]c2c(OC(=O)N3CCN(C)CC3)cc3c(c12)C(CBr)CN3C(=O)/C=C/c1cnc(OC)nc1 (stereo not shown) [Compound 8]	–	–	26	–
COC(=O)c1c(C)[nH]c2c(OC(C)=O)cc3c(c12)C(CBr)CN3C(=O)/C=C/c1cnc(OC)nc1 (stereo not shown) [Compound 11]	17	–	–	–
COC(=O)c1c(C)[nH]c2c(OC(=O)N3CCN(C)CC3)cc3c(c12)C(CBr)CN3C(=O)/C=C/c1ccc(OC)nn1 (stereo not shown) [Compound 14]	31	–	–	–
COC(=O)c1c(C)[nH]c2c(OC(=O)N3CCN(C)CC3)cc3c(c12)C(CBr)CN3C(=O)COc1ccc(OC)cc1 (stereo not shown) [Compound 20]	–	20	–	–
COC(=O)c1c(C)[nH]c2c(OC(=O)N3CCN(C)CC3)cc3c(c12)C(CBr)CN3C(=O)COc1ccc(OC(F)(F)F)cc1 (stereo not shown) [Compound 25]	–	–	12	–
COC(=O)c1c(C)[nH]c2c(OC(=O)N3CCN(C)CC3)cc3c(c12)C(CBr)CN3C(=O)/C=C/c1ccc(OC)c(N(C)C)c1 (stereo not shown) [Compound 43]	–	–	13	–
COC(=O)c1c(C)[nH]c2c(OC(C)=O)cc3c(c12)C(CBr)CN3C(=O)/C=C/c1ccc(OC)c(N(C)C)c1 (stereo not shown) [Compound 45]	20	–	–	–
CCN(CC)c1cc(/C=C/C(=O)N2CC(CBr)c3c2cc(OC(=O)N2CCN(C)CC2)c2[nH]c(C)c(C(=O)OC)c32)ccc1OC (stereo not shown) [Compound 49]	–	–	–	20
